Test results as given in patent US6358885B1, “Substituted phenylheterocyclic herbicides” (Mississippi State University, priority 1992, dated 2002).

How the values were obtained:
giant foxtail = experiment: Test B preemergence/postemergence greenhouse plant response rating 0 to 10; assay type: in vivo, Setaria faberii; details: 0 to 10 scale
Outline: (§1)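 Test chemicals, dissolved in a non-phytotoxic solvent, were applied to soil at planting and, at the same time, over foliage of seedlings at the one to four leaf stage.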

corn = experiment: as above; assay type: in vivo, Zea mays; details: 0 to 10 scale
Outline: as §1

morningglory [1] = experiment: as above; assay type: in vivo, Ipomoea hederacea; details: 0 to 10 scale
Outline: as §1

chickweed = experiment: as above; assay type: in vivo, Stellaria media; details: 0 to 10 scale
Outline: as §1

cheatgrass = experiment: as above; assay type: in vivo, Bromus secalinus; details: 0 to 10 scale
Outline: as §1

barley = experiment: Test C preemergence/postemergence greenhouse plant response rating 0 to 100; assay type: in vivo, Hordeum vulgare; details: for Plant response rating Barley Igri: 62 g/ha, 0 to 100 scale
Description: (§2) The compounds evaluated in this test were formulated in a non-phytoxic solvent and applied to the soil surface before plant seedlings emerged (preemergence application), to water that covered the soil surface (flood application), and to plants that were in the one-to-four leaf stage (postemergence application). A sandy loam soil was used for the preemergence and postemergence tests, while a silt loam soil was used in the flood test. Water depth was approximately 2.5 cm for the flood test and was maintained at this level for the duration of the test. Plant species in the preemergence and postemergence tests consisted of barley (Hordeum vulgare), bedstraw (Galium aparine), blackgrass (Alopecurus myosuroides), chickweed (Stellaria media), corn (Zea mays), cotton (Gossypium hirsutum), crabgrass (Digitaria sanguinalis), downy brome (Bromus tectorum), giant foxtail (Setaria faberii), lambsquarters (Chenopodium album), morningglory (Ipomoea hederacea), pigweed ([…]), rape (Brassica napus), ryegrass (Lolium multiflorum), sorghum (Sorghum bicolor), soybean (Glycine max), speedwell (Veronica persica), sugar beet (Beta vulgaris), velvetleaf (Abutilon theophrasti), wheat (Triticum aestivum), wild buckwheat (Polygonum convolvulus), and wild oat (Avena fatua). All plant species were planted one day before application of the compound for the preemergence portion-of this test. Plantings of these species were adjusted to produce plants of appropriate size for the post-emergence portion of the test. […] All plant species were grown using normal greenhouse practices. Visual evaluations of injury expressed on treated plants, when compared to untreated controls, were recorded approximately fourteen to twenty one days after application of the test compound. […] A dash (-) response means no test result.

barnyardgrass = experiment: Test B preemergence/postemergence greenhouse plant response rating 0 to 10; assay type: in vivo, Echinochloa crus-galli; details: 0 to 10 scale
Outline: as §1

crabgrass = experiment: as above; assay type: in vivo, Digitaria spp.; details: 0 to 10 scale
Outline: as §1

morningglory [2] = experiment: Test C preemergence/postemergence greenhouse plant response rating 0 to 100; assay type: in vivo, Ipomoea hederacea; details: for Plant response rating, Morningglory: 62 g/ha, 0 to 100 scale
Description: as §2

velvetleaf = experiment: Test B preemergence/postemergence greenhouse plant response rating 0 to 10; assay type: in vivo, Abutilon theophrasti; details: 0 to 10 scale
Outline: as §1

lambsquarters = experiment: Test C preemergence/postemergence greenhouse plant response rating 0 to 100; assay type: in vivo, Chenopodium album; details: POSTEMERGENCE
Description: as §2

soybean = experiment: as above; assay type: in vivo, Glycine max
Description: as §2

rape = experiment: Test B preemergence/postemergence greenhouse plant response rating 0 to 10; assay type: in vivo, Brassica napus; details: 0 to 10 scale
Outline: as §1

CC(C)Oc1cc(-c2nn3c(c2Br)CCCC3)c(F)cc1Cl [Compound 38]
6: Plant response rating, Barnyardgrass (barnyardgrass; POSTEMERGENCE, Rate 50 g/ha) | Plant response rating, Crabgrass (crabgrass; POSTEMERGENCE, Rate 200 g/ha) | Plant response rating, Velvetleaf (velvetleaf; POSTEMERGENCE, Rate 50 g/ha)
7: Plant response rating, Giant foxtail (giant foxtail; Rate 200 g/ha, POSTEMERGENCE) | Plant response rating, Velvetleaf (velvetleaf; Rate 200 g/ha, PREEMERGENCE)
70: Plant response rating Lambsquarters (lambsquarters; 62 g/ha, 0 to 100 scale) | Plant response rating (0 to 100), Lambsquarters (lambsquarters; Rate 16 g/ha)
4: Plant response rating, Corn (corn; POSTEMERGENCE, Rate 50 g/ha) | Plant response rating, Morningglory (morningglory [1]; Rate 200 g/ha, PREEMERGENCE) | Plant response rating, Cheatgrass (cheatgrass; POSTEMERGENCE, Rate 50 g/ha)
10: Plant response rating, Chickweed (chickweed; POSTEMERGENCE, Rate 200 g/ha) | Plant response rating (0 to 100), Barley Igri (barley; POSTEMERGENCE, Rate 1 g/ha) | Plant response rating, Velvetleaf (velvetleaf; Rate 200 g/ha, POSTEMERGENCE) | Plant response rating, Rape (rape; Rate 200 g/ha, POSTEMERGENCE)
40: Plant response rating (0 to 100), Barley Igri (barley; Rate 16 g/ha, POSTEMERGENCE) | Plant response rating (0 to 100), Soybean (soybean; Rate 16 g/ha, POSTEMERGENCE)
50: Plant response rating Barley Igri (barley; POSTEMERGENCE)
5: Plant response rating, Giant foxtail (giant foxtail; POSTEMERGENCE, Rate 50 g/ha) | Plant response rating, Corn (corn; POSTEMERGENCE, Rate 200 g/ha) | Plant response rating, Cheatgrass (cheatgrass; POSTEMERGENCE, Rate 200 g/ha) | Plant response rating, Crabgrass (crabgrass; POSTEMERGENCE, Rate 50 g/ha)
8: Plant response rating, Morningglory (morningglory [1]; POSTEMERGENCE, Rate 50 g/ha) | Plant response rating, Barnyardgrass (barnyardgrass; POSTEMERGENCE, Rate 200 g/ha) | Plant response rating, Crabgrass (crabgrass; Rate 200 g/ha, PREEMERGENCE) | Plant response rating, Rape (rape; POSTEMERGENCE, Rate 50 g/ha) | Plant response rating, Rape (rape; PREEMERGENCE, Rate 50 g/ha) | Plant response rating, Rape (rape; Rate 200 g/ha, PREEMERGENCE)
3: Plant response rating, Cheatgrass (cheatgrass; Rate 200 g/ha, PREEMERGENCE)
0: Plant response rating, Corn (corn; PREEMERGENCE, Rate 50 g/ha) | Plant response rating, Morningglory (morningglory [1]; PREEMERGENCE, Rate 50 g/ha) | Plant response rating, Chickweed (chickweed; PREEMERGENCE, Rate 50 g/ha) | Plant response rating, Chickweed (chickweed; Rate 200 g/ha, PREEMERGENCE) | Plant response rating, Cheatgrass (cheatgrass; PREEMERGENCE, Rate 50 g/ha) | Plant response rating Barley Igri (barley; PREEMERGENCE) | Plant response rating (0 to 100), Barley Igri (barley; PREEMERGENCE, Rate 1 g/ha) | Plant response rating (0 to 100), Barley Igri (barley; PREEMERGENCE, Rate 4 g/ha) | Plant response rating (0 to 100), Barley Igri (barley; Rate 16 g/ha, PREEMERGENCE) | Plant response rating, Barnyardgrass (barnyardgrass; PREEMERGENCE, Rate 50 g/ha) | Plant response rating, Crabgrass (crabgrass; PREEMERGENCE, Rate 50 g/ha) | Plant response rating (0 to 100), Morningglory (morningglory [2]; PREEMERGENCE, Rate 1 g/ha) | Plant response rating (0 to 100), Morningglory (morningglory [2]; PREEMERGENCE, Rate 4 g/ha) | Plant response rating (0 to 100), Morningglory (morningglory [2]; Rate 16 g/ha, PREEMERGENCE) | Plant response rating, Velvetleaf (velvetleaf; PREEMERGENCE, Rate 50 g/ha) | Plant response rating (0 to 100), Soybean (soybean; PREEMERGENCE, Rate 1 g/ha) | Plant response rating (0 to 100), Soybean (soybean; PREEMERGENCE, Rate 4 g/ha) | Plant response rating (0 to 100), Soybean (soybean; Rate 16 g/ha, PREEMERGENCE)
2: Plant response rating, Giant foxtail (giant foxtail; PREEMERGENCE, Rate 50 g/ha) | Plant response rating, Corn (corn; Rate 200 g/ha, PREEMERGENCE)
95: Plant response rating, Morningglory (morningglory [2]; POSTEMERGENCE) | Plant response rating (0 to 100), Morningglory (morningglory [2]; Rate 16 g/ha, POSTEMERGENCE)
1: Plant response rating, Barnyardgrass (barnyardgrass; Rate 200 g/ha, PREEMERGENCE)
30: Plant response rating (0 to 100), Barley Igri (barley; Rate 4 g/ha, POSTEMERGENCE) | Plant response rating (0 to 100), Morningglory (morningglory [2]; POSTEMERGENCE, Rate 4 g/ha)
60: Plant response rating (0 to 100), Lambsquarters (lambsquarters; Rate 1 g/ha) | Plant response rating (0 to 100), Lambsquarters (lambsquarters; Rate 4 g/ha) | Plant response rating, Soybean (soybean; POSTEMERGENCE, 62 g/ha, 0 to 100 scale)
9: Plant response rating, Giant foxtail (giant foxtail; Rate 200 g/ha, PREEMERGENCE) | Plant response rating, Morningglory (morningglory [1]; Rate 200 g/ha, POSTEMERGENCE) | Plant response rating, Chickweed (chickweed; POSTEMERGENCE, Rate 50 g/ha)
20: Plant response rating (0 to 100), Morningglory (morningglory [2]; POSTEMERGENCE, Rate 1 g/ha) | Plant response rating, Morningglory (morningglory [2]; PREEMERGENCE) | Plant response rating (0 to 100), Soybean (soybean; POSTEMERGENCE, Rate 1 g/ha) | Plant response rating (0 to 100), Soybean (soybean; POSTEMERGENCE, Rate 4 g/ha)
